# Tests used:
# [1] = Ocular safety and histopathology after SCS TA (Example 8); type: in vivo, pigmented rabbits; settings: SCS TA by microneedle, up to 120 days
# Protocol: in this study, the total amount of triamcinolone acetonide (TA) delivered into live pigmented rabbit eyes when injected, into the suprachoroidal space using a hollow microneedle or into the vitreous using a standard 30 gauge needle was compared.
# On Day 0, pigmented rabbits were injected with either intravitreal or bilateral suprachoroidal injections of 2 mg/100 μl TA Triesence® (TA; Alcon Labs). intravitreal injections were performed using a 30 g needle (Becton-Dickinson) and suprachoroidal injections were performed using a 33 g 750 μm microneedle. The residual amount of TA present in the syringe/needle assembly after injection was determined by RP-HPLC. Clinical observations, slit lamp biomicroscopy with McDonald-Shadduck scoring, intraocular pressure assessment (IOP), electroretinography (ERG), and systemic exposure were assessed up to 120 days post-dose. Animals were sacrificed at 30 minutes, 7 days, 30 days, 60 days, and 120 days for macroscopic observations, ocular toxicokinetics, and ocular histopathology.
# [2] = Clinical observations and tolerability, SCS vs IVT TA (Example 10); type: in vivo, New Zealand White rabbit
# Protocol: In this study, the ocular and systemic pharmacokinetics (PK) of triar cinolone acetonide (TA) in the New Zealand White rabbit following intravitreal […] injection or administration into the suprachoroidal space (SCS) using a hollow rnicroneedle were evaluated.
# On Day 0, male rabbits (5 per group) received a single bilateral administration of 4 mg TA (100 μL Triesence triamcinolone formulationAlcon Labs) via SCS injection using a 33 g 750 μm microneedle or an IVT injection using a standard 30 g needle. The study design is shown below in Table 4.
# Clinical observations, body weights, and intraocular pressure (IOP) were assessed up to 13 weeks post-dose. Plasma and ocular matrixes (aqueous humor (AH), lens, iris/ciliary body (ICB), vitreous humor (VH), sclera/choroid (SC), and retina) were sampled on Days 1, 14, 28, 56, and 91. Plasma (LLOQ 0.5 ng/mL) and ocular matrixes (LLOQ 2 -15 ng/mL) were analyzed using LC-MS/MS, and resulting data were assessed for noncompartmentat PK parameters.
# [3] = tested on: subretinal endotoxin-induced model of posterior segment uveitis; experiment: Subretinal endotoxin-induced model of posterior segment uveitis, pretreatment with SCS or IVT TA (Example 11); type: in vivo, New Zealand White rabbits
# Protocol: In this study, the effects of pretreatment with suprachoroidal or intravitreal triamcinolone acetonide (TA) in a subretinal endotoxin-induced model of posterior segment uveitis in New Zealand White rabbits was evaluated.
# On Day 1, female rabbits (4 eyes/group) received a single unilateral injection of vehicle or 4 mg TA (Triesence®, 40 mg/mL suspension, Alcon Labs) into the suprachoroidal space (SCS) using a 33 g 750 μm microneedle, or a 4 mg TA IVT injection using a standard 30 g needle. On Day 6, each animal received a single unilateral subretinal injection of lipopolysaccharide (LPS, 20-30 μL, 203 μg/g of 1% sodium hylauronate) to induce ocular inflammation in the treated eye. Animals were monitored for 22 days following dose administration. Endpoints included body weights, ocular observations, slit lamp biomicroscopy with McDonald-Shadduck scoring and photography, indirect ophthalmoscopy, fundus photography, intraocular pressure (IOP), and histopathology. A summary of the study design is shown below, in Table 6.
# [4] = tested on: LPS-induced acute posterior uveitis; experiment: Aqueous and vitreous humor inflammatory cell counts and protein concentration (Example 13); type: in vivo, domestic weanling pigs
# Protocol: Pigs were euthanized on study day 3 after clinical scoring, OCT, ERG, and wide-field ocular fundus photography was completed. After euthanasia with an overdose of intravenous barbiturate, both eyes were removed, Aqueous humor (All) was aspirated and a 1 mL sample of vitreous humor (VH) was collected from each eye immediately after euthanasia. The globe was then fixed in Davidson's solution for 24 hours, followed by alcohol. Central, saggital sections of each globe, including the optic nerve, were stained with hematoxylin and eosin and examined by light microscopy. Two pathology-trained observers, masked to the study groups, graded degree of inflammatory infiltrate of the ocular anterior and posterior segments. The grading scale for the anterior and posterior ocular segment used was as follows: 0=no evidence of cellular infiltrate; 1=a few cells infiltrated (mild)−focal; 2=a few cells infiltrated (mild)−diffuse; 3=moderate number of cells infiltrated; and 4=high amount of cellular infiltrate.
# After aspiration from the eyes, AH and VH were immediately placed on ice, transferred to the laboratory, then frozen at −80° C. until processing. Samples where thawed at room temperature, vortexed, and total cell counts were performed with a hemocytometer. Total protein concentration was measured using the […] (Pierce BCA Protein Assay Kit, Thermo Scientific Pierce, Rockford, Ill.).
# Differences were considered significant at P<0.05.
# [5] = design: species or system New Zealand White rabbit; settings: rabbit, in vivo
# Protocol: In this study, the ocular tolerability and toxicokinetics of suprachoroidal administration of Ting triamcinolone acetonide (TA) using microneedle was determined, in the New Zealand White rabbit as an animal model.
# On Day 0, New Zealand White (NZW) rabbits (4/sex/group/terminal time point, 48 total) were administered a single bilateral suprachoroidal injection of 100 μL of 4 ma TA (40 mg/mL) or vehicle, using a 33 g 750 μm microneedle. Clinical Observations, body weights, food consumption, slit lamp biomicroscopy with McDonald-Shadduck scoring, indirect ophthalmoscopy, intraocular pressure assessment (IOP), central corneal thickness (CCT), electroretinography (ERG), serum chemistry and hematology, and systemic exposure were assessed up to 13 weeks post-dose. Animals were sacrificed on Day 1 or Week 13 and were evaluated for macroscopic observations at necropsy and ocular histopathology. Four animals/sex were given an additional suprachoroidal administration on Day 90, and will be followed for an additional 13 weeks.
smiles,measurement,setting,value
"CC1(C)O[C@@H]2C[C@H]3[C@@H]4CCC5=CC(=O)C=C[C@]5(C)[C@@]4(F)[C@@H](O)C[C@]3(C)[C@]2(C(=O)CO)O1 [TA, triamcinolone acetonide]","safety profile (inflammation, edema, apoptosis, necrosis)",[1],"no marked inflammation, edema, apoptosis, or necrosis at any time point"
same,adverse effects related to treatment or method of administration,"[2]; SCS and IVT, 4 mg TA",no observed adverse effects
same,tolerability,"[2]; both IVT and SCS TA, 4 mg, albino rabbit",well tolerated
same,Iris vessel dilation and tortuosity compared with the SCS vehicle group,[3]; 4 mg TA IVT,reduced to a lesser extent
same,"Vitritis, aqueous flare, and cellularity compared to SCS vehicle eyes",[3]; 4 mg TA IVT,substantially less severe
same,inflammation as assessed histopathologically compared with the vehicle group,[3]; 4 mg TA IVT,marked reduction
same,Iris vessel dilation and tortuosity compared with the SCS vehicle group,[3]; 4 mg TA SCS,reduced
same,"Vitritis, aqueous flare, and cellularity compared to SCS vehicle eyes",[3]; 4 mg TA SCS,substantially less severe
same,inflammation as assessed histopathologically compared with the vehicle group,[3]; 4 mg TA SCS,marked reduction
same,"effectiveness in reducing the inflammatory response, SCS vs IVT",[3]; 4 mg TA SCS by hollow microneedle,as effective as 4 mg IVT TA
same,overall inflammatory response / inflammatory endpoints compared to vehicle control,"[3]; 4 mg TA SCS, pretreatment Day 1, LPS Day 6",significant reduction
same,"Mean AH cell counts compared with Groups 1, 5 or 6",[4]; Group 3: low dose TA SCS,not significantly different
same,Mean VH cell count compared with Group 1 and Group 4,[4]; Group 3: low dose TA SCS,significantly higher
same,"Mean AH cell counts compared with Groups 1, 5 or 6",[4]; Group 4: high dose TA SCS,not significantly different
same,"mean VH cell counts compared with Group 1, the untreated control",[4]; Group 4: high dose TA SCS,not significantly different
same,"mean vitreous humor protein concentrations compared with Groups 3, 5 and 6",[4]; Group 4: high dose TA SCS,significantly lower
same,Mean AH cell counts compared with Group 1,[4]; Group 5: low dose TA IVT,significantly higher
same,Mean VH cell count compared with Group 1 and Group 4,[4]; Group 5: low dose TA IVT,significantly higher
same,Mean AH cell counts compared with Group 1,[4]; Group 6: high dose TA IVT,significantly higher
same,"mean aqueous humor protein concentration, differences among the groups",[4]; all groups,no significant differences
same,IOP change related to the injection procedure,[5],decrease
same,adverse effects related to the method of administration or 4 mg TA as assessed by histopathology,[5],no adverse effects
same,central corneal thickness (CCT),[5],slight decrease
same,mean Cmax in plasma,[5]; 4 mg,12 ng/mL
